Positions count from the first letter of the chain named.
Experiments:
[1] = molecular target: T1, zfP2X4 (ΔP2X4-C) T189S mutant (Danio rerio, UniProt F8W463, N187R/N78K/T189S); test: ATR-FTIR difference spectroscopy, residual nucleotide after washing, zfP2X4 T189S; type: binding, zebrafish; conditions: 10 μM nucleotide, after 15–30 min washing, P-O stretching bands 1250–800 cm−1
T1 construct: EGFP (N); octa-histidine tag (N); made in house; host or cells: Sf9 insect cells
T1 sequence (F8W463 28-365 N78K/N187R/T189S limits assumed): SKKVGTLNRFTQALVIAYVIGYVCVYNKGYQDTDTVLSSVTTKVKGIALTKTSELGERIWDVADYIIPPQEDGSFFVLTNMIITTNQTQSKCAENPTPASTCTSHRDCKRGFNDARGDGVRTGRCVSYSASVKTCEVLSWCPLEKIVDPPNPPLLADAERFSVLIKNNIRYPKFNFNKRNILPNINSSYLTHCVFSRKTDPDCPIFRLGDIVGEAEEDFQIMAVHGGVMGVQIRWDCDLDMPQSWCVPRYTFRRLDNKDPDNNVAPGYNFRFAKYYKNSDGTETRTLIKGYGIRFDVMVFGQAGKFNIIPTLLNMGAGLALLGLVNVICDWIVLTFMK
From the text: (§1) To further investigate the nucleotide binding specificity of zfP2X4, we applied ligand-binding induced difference Attenuated total reflectance (ATR)-Fourier-transform infrared (FTIR) spectroscopy on the WT and conserved threonine mutants (T189S and T189V) of zfP2X4.
(§2) Figure 5 ATR-FTIR spectroscopic analysis of zfP2X4 for the ATP and CTP bindings. (A) The reduction of the ligand binding induced difference spectra in the ΔP2X4-C ^zfWT, ^zfT189S and ^zfT189V mutants around the P-O stretching region (1250–800 cm^−1) after washing treatment for 15–30 min. (B) The residual nucleotides after the washing treatment estimated from the ATR-FTIR analysis in (A).
(§3) The nucleotide binding affinity of zfP2X4 was analyzed by reduction of the band intensity after washing treatment (Fig. 5). The reduction of the P-O stretching bands between 1250–800 cm^−1 was monitored for ATP (Fig. 5A). […]
(§4) The perfusion-induced difference FTIR spectroscopy was performed as similarly to the previous studies. […] ATR-FTIR spectra of the samples were recorded at 25 °C and 2 cm^−1 resolution using a VERTEX 70 spectrometer (Bruker Optics) equipped with a liquid-nitrogen-cooled MCT detector. […] The obtained difference spectra were normalized based on the absolute absorbance of the amide I band at 1653 cm^−1, which well correlates with the quantities of the proteins on the ATR crystals. […]

[2] = molecular target: T2, zfP2X4 (ΔP2X4-C) T189V mutant (Danio rerio, UniProt F8W463, N187R/N78K/T189V); test: ATR-FTIR difference spectroscopy, residual nucleotide after washing, zfP2X4 T189V; type: binding, zebrafish; conditions: 10 μM nucleotide, after 15–30 min washing, P-O stretching bands 1250–800 cm−1
T2 construct: EGFP (N); octa-histidine tag (N); made in house; host or cells: Sf9 insect cells
T2 sequence (F8W463 28-365 N78K/N187R/T189V limits assumed): T1 sequence (F8W463 28-365 N78K/N187R/T189S limits assumed) with S162V
From the text: as §1, §2, §3, §4

| Structure (SMILES) | residual nucleotide binding after washing [1] | residual nucleotide binding after washing [2] |
| --- | --- | --- |
| Nc1ncnc2c1ncn2[C@@H]1O[C@H](COP(=O)(O)OP(=O)(O)OP(=O)(O)O)[C@@H](O)[C@H]1O [ATP, Adenosine 5-triphosphate] | ~ 60% | 10% |
| Nc1ccn([C@@H]2O[C@H](COP(=O)(O)OP(=O)(O)OP(=O)(O)O)[C@@H](O)[C@H]2O)c(=O)n1 [CTP] | ~ 30% | ~ 30% |
